What was measured:
Parameters in all cases: key: 0: normal development; 1: Less damaged; 2: Slightly damaged; 3: Moderately damaged; 4: Severely damaged; 5: All killed
monochoria = assay: Herbicidal test for paddy field; type: in vivo, Monochoria vaginalis; conditions: paddy field pot, 500 g/ha dropwise at 1.5 leaf stage of barnyardgrass, 3 weeks, rank vs non-treated
How it was run: (§1)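 Post-flooding water application of 500 g/ha, given at 1.5-leaf barnyardgrass, to plants in Ube alluvial soil held under 3 cm of water. Ratings of 0 to 5 relative to untreated controls were made after three weeks in a glasshouse.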

barnyardgrass [1] = assay: Herbicidal test for paddy field; type: in vivo, Echinochloa crusgalli; conditions: paddy field pot, 500 g/ha dropwise at 1.5 leaf stage of barnyardgrass, 3 weeks, rank vs non-treated
How it was run: as §1

livid amaranth = assay: Soil treatment test for upland field; type: in vivo, Amaranthus lividus; conditions: 500 g/ha, glass house 25° C., 3 weeks
How it was run: (§2)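 Seeds planted in Wagner pots of Ube soil (alluvial) and covered. Wettable powder diluted in 0.05% surfactant water, sprayed uniformly onto soil at 500 g/ha effective rate. Grown 3 weeks, glasshouse, mean 25° C, then damage rated visually 0–5.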

green foxtail = assay: Soil treatment test for upland field; type: in vivo, Setaria viridis; conditions: 500 g/ha, glass house 25° C., 3 weeks
How it was run: as §2

barnyardgrass [2] = assay: Soil treatment test for upland field; type: in vivo, Echinochloa crusgalli; conditions: 500 g/ha, glass house 25° C., 3 weeks
How it was run: as §2

solgum = assay: Soil treatment test for upland field; type: in vivo; conditions: 500 g/ha, glass house 25° C., 3 weeks
How it was run: as §2

wheat = assay: Soil treatment test for upland field; type: in vivo; conditions: 500 g/ha, glass house 25° C., 3 weeks
How it was run: as §2

cotton = assay: Soil treatment test for upland field; type: in vivo; conditions: 500 g/ha, glass house 25° C., 3 weeks
How it was run: as §2

corn = assay: Soil treatment test for upland field; type: in vivo; conditions: 500 g/ha, glass house 25° C., 3 weeks
How it was run: as §2

soybean = assay: Soil treatment test for upland field; type: in vivo; conditions: 500 g/ha, glass house 25° C., 3 weeks
How it was run: as §2

young rice plant = assay: Herbicidal test for paddy field; type: in vivo; conditions: paddy field pot, 500 g/ha dropwise at 1.5 leaf stage of barnyardgrass, 3 weeks, rank vs non-treated
How it was run: as §1

common lambsquartes = assay: Soil treatment test for upland field; type: in vivo, Chenopodium album; conditions: 500 g/ha, glass house 25° C., 3 weeks
How it was run: as §2

flat sedge = assay: Herbicidal test for paddy field; type: in vivo, Cyperus serotinus; conditions: paddy field pot, 500 g/ha dropwise at 1.5 leaf stage of barnyardgrass, 3 weeks, rank vs non-treated
Experimental: Wagner pots, each having an area of 1/5000 are, were packed with Ube soil (alluvial soil) and planted with seeds or tubers of young rice plant, barnyardgrass, bulrush, flat sedge and monochoria. Then, the pots were filled with water to a depth of 3 cm.
Each wettable powder of the desired compounds (I) shown in Table 1 prepared in accordance with Example 2 was diluted with water containing a surfactant (0.05%) and subjected to dropwise addition treatment by using pipet so that an effective concentration of the compound (I) in each herbicide became 500 g/ha at 1.5 leaf stage of barnyardgrass.
These plants were controlled in a glass house at an average temperature of 25° C. for 3 weeks, and then herbicidal effects thereof were investigated.
The herbicidal effects are evaluated according to the following 6 ranks as compared with non-treated district.
(0: normal development, 1: Less damaged, 2: Slightly damaged, 3: Moderately damaged, 4: Severely damaged, 5: All killed).

annual bluegrass = assay: Soil treatment test for upland field; type: in vivo, Poa annua; conditions: 500 g/ha, glass house 25° C., 3 weeks
How it was run: as §2

bulrush = assay: Herbicidal test for paddy field; type: in vivo, Scrips juncoides; conditions: paddy field pot, 500 g/ha dropwise at 1.5 leaf stage of barnyardgrass, 3 weeks, rank vs non-treated
How it was run: as §1

Large crabgrass = assay: Soil treatment test for upland field; type: in vivo, Digitaria adscendens; conditions: 500 g/ha, glass house 25° C., 3 weeks
How it was run: as §2

blackgrass = assay: Soil treatment test for upland field; type: in vivo, Alopecurus aegualis; conditions: 500 g/ha, glass house 25° C., 3 weeks
How it was run: as §2

sugar beat = assay: Soil treatment test for upland field; type: in vivo; conditions: 500 g/ha, glass house 25° C., 3 weeks
How it was run: as §2

velvetleaf = assay: Soil treatment test for upland field; type: in vivo, Abutilon theophrasti; conditions: 500 g/ha, glass house 25° C., 3 weeks
How it was run: as §2

| SMILES | Effect Monochoria (monochoria) | Effect Barnyardgrass (barnyardgrass [1]) | Effects Livid amaranth (livid amaranth) | Effects Green foxtail (green foxtail) | Effects Barnyardgrass (barnyardgrass [2]) | Effects Solgum (solgum) | Effects Wheat (wheat) | Effects Cotton (cotton) | Effects Corn (corn) | Effects Soybean (soybean) | Effect Young rice plant (young rice plant) | Effects Common lambsquarters (common lambsquartes) | Effect Flat sedge (flat sedge) | Effects Annual bluegrass (annual bluegrass) | Effect Bulrush (bulrush) | Effects Large crabgrass (Large crabgrass) | Effects Blackgrass (blackgrass) | Effects Sugar beat (sugar beat) | Effects Velvetleaf (velvetleaf) |
| --- | --- | --- | --- | --- | --- | --- | --- | --- | --- | --- | --- | --- | --- | --- | --- | --- | --- | --- | --- |
| CC(Oc1cccc(C(F)(F)F)c1)c1nc2cc(Cl)ccc2o1 (centres unmarked) [Compound 138] | 3 | 2 | 5 | 2 | 1 | 0 | 0 | 0 | 0 | 0 | 0 | 3 | 3 | 3 | 2 | 4 | 5 | – | – |
| CCC(Oc1ccc(F)c(C(F)(F)F)c1)c1nc2cc(C#N)ccc2o1 (centres unmarked) [Compound 189] | 5 | 5 | – | – | – | – | – | – | – | – | 2 | – | 5 | – | 5 | – | – | – | – |
| CCCC(Oc1ccc(F)c(C(F)(F)F)c1)c1nc2cc(F)c(F)cc2o1 (centres unmarked) [Compound 286] | 5 | 4 | – | – | – | – | – | – | – | – | 3 | – | 3 | – | 5 | – | – | – | – |
| CCC(Oc1ccc(F)c(C(F)(F)F)c1)c1nc2cc(C#N)c(F)cc2o1 (centres unmarked) [Compound 346] | 5 | 5 | – | – | – | – | – | – | – | – | 2 | – | 5 | – | 5 | – | – | – | – |
| CCCC(Oc1ccc(F)c(C(F)(F)F)c1)c1nc2cc(C#N)c(F)cc2o1 (centres unmarked) [Compound 348] | 5 | 4 | – | – | – | – | – | – | – | – | 2 | – | 4 | – | 4 | – | – | – | – |
| CCC(Oc1cccc(C#N)c1)c1nc2cc(C#N)ccc2o1 (centres unmarked) [Compound 392] | 5 | 5 | 5 | 5 | 2 | 5 | 0 | 0 | 1 | 0 | 0 | 3 | 5 | 4 | 5 | 5 | – | 2 | – |
| CCCC(Oc1cccc(C#N)c1)c1nc2cc(C#N)ccc2o1 (centres unmarked) [Compound 393] | 5 | 4 | – | – | – | – | – | – | – | – | 0 | – | 5 | – | 5 | – | – | – | – |
| CCC(Oc1cccc(OC(F)(F)F)c1)c1nc2cc(C#N)ccc2o1 (centres unmarked) [Compound 396] | 5 | 2 | 5 | 5 | 5 | 3 | 2 | – | 2 | 2 | 2 | 5 | 5 | 5 | 5 | 5 | 5 | 5 | 5 |

Source: patent US6706664B1, “Benzoxazole compounds, process for the preparation thereof and herbicides” (UBE Industries, Ltd., priority 1999, dated 2004)
